Activity calls are given as the source filed them. No cut-off for these calls is given here.
Legend:
Rattus norvegicus [1] = assay: The Compound was tested in vivo for DOPA accumulation in hemispheres (cortex) against reserpine-pretreated rats; I=inactive at the highest dose tested (50).; type: functional, organism-based
D(2) dopamine receptor [2] = biological target: T1, D(2) dopamine receptor (Rattus norvegicus, UniProt P61169); assay: Binding affinity against Dopamine receptor D2 from CHO-K1 cells, using [3H]U-86,170 as the radioligand.; type: cell-based
T1 sequence (P61169 whole entry): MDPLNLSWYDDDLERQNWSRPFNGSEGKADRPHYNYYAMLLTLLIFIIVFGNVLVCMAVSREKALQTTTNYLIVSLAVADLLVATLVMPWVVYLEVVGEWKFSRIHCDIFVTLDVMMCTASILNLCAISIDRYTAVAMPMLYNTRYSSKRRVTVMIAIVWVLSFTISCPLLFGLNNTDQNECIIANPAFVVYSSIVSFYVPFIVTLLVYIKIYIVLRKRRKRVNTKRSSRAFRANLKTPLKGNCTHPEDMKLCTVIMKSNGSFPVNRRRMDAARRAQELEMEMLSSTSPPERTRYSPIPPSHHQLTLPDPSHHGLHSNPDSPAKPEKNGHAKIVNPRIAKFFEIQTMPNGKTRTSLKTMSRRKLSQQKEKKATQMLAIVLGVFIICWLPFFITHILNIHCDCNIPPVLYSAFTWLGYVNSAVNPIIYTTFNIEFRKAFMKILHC

Rattus norvegicus [3] = assay: In vivo for 5-HTP accumulation in limbic system against reserpine-pretreated rats.; type: functional
Rattus norvegicus [4] = assay: In vivo for 5-HTP accumulation in corpus striatum against reserpine-pretreated rats.; type: functional
Rattus norvegicus [5] = assay: In vivo for DOPA accumulation in corpus striatum against reserpine-pretreated rats.; type: functional
[6] = biological target: 5-hydroxytryptamine receptor 1D (Homo sapiens, UniProt P28221); assay: Binding affinity against 5-hydroxytryptamine 1D receptor alpha expressed in CHO-K1 cells, using [3H]-5-HT as the radioligand.; type: cell-based; settings: read-out: Ki
Chain of 5-hydroxytryptamine receptor 1D (P28221 whole entry): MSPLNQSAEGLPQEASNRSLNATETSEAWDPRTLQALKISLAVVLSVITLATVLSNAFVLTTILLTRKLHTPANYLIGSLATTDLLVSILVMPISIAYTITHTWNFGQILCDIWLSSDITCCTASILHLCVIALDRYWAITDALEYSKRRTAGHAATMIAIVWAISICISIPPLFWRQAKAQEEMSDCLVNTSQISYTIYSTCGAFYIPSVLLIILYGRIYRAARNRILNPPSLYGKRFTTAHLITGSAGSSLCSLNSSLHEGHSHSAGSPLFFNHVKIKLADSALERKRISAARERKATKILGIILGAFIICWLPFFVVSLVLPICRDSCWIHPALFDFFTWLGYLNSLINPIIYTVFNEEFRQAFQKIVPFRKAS

Rattus norvegicus [7] = assay: In vivo for DOPA accumulation in limbic system against reserpine-pretreated rats.; type: functional
[8] = biological target: 5-hydroxytryptamine receptor 1B (Homo sapiens, UniProt P28222); assay: Binding affinity against 5-hydroxytryptamine 1D receptor beta expressed in CHO-K1 cells, using [3H]5-HT as the radioligand.; type: cell-based
Chain of 5-hydroxytryptamine receptor 1B (P28222 whole entry): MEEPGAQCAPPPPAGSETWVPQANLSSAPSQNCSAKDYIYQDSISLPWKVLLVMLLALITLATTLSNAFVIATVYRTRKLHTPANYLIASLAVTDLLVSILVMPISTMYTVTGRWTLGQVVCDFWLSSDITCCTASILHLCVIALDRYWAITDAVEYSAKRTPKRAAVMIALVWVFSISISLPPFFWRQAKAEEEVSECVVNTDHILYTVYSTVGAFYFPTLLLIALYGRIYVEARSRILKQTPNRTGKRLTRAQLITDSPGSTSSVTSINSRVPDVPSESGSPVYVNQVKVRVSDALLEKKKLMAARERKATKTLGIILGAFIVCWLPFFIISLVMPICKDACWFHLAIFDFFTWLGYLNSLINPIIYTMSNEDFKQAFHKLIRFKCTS

Rattus norvegicus [9] = assay: In vivo for 5-HTP accumulation in hemispheres (cortex) against reserpine-pretreated rats.; type: functional
[10] = biological target: T2, 5-hydroxytryptamine receptor 1A (Rattus norvegicus, UniProt P19327); assay: Binding affinity against 5-hydroxytryptamine 1A receptor from CHO-K1 cells, using [3H]8-OH-DPAT as the radioligand.; type: cell-based
T2 sequence (P19327 whole entry): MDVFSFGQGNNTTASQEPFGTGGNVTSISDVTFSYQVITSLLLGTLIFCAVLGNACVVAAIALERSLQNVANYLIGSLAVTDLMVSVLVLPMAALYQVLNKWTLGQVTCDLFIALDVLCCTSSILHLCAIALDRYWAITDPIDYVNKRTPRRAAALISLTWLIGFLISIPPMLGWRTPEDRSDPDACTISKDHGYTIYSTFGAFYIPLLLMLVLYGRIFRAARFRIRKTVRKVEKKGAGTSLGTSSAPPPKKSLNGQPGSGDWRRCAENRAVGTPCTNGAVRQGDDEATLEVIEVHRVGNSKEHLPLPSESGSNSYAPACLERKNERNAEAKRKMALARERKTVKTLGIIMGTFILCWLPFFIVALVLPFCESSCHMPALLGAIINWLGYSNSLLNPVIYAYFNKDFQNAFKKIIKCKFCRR

D(3) dopamine receptor [11] = biological target: T3, D(3) dopamine receptor (Rattus norvegicus, UniProt P19020); assay: Binding affinity against Dopamine receptor D3 from CHO-K1 cells, using [3H]spiperone as the radioligand.; type: cell-based; settings: read-out: Ki
T3 sequence (P19020 whole entry): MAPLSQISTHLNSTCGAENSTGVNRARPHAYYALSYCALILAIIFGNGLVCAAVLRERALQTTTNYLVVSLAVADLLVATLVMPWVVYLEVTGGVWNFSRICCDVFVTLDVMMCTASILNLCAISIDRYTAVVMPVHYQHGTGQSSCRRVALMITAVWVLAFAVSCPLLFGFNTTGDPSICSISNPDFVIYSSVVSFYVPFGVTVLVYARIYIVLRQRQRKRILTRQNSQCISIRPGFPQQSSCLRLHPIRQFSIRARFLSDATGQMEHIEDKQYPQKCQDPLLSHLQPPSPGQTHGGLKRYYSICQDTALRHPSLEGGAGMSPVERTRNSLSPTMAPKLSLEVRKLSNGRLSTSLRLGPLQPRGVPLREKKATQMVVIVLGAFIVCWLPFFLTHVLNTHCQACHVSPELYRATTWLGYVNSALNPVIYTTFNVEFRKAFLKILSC

D(3) dopamine receptor [12] = biological target: T3, D(3) dopamine receptor; assay: Binding affinity against Dopamine receptor D3 expressed in CHO-K1 cells, using [3H]spiperone as the radioligand.; type: cell-based
Rattus norvegicus [13] = assay: The Compound was tested in vivo for DOPA accumulation in limbic system against reserpine-pretreated rats; P=significant partial reduction only at the highest dose tested (50).; type: functional, organism-based
Rattus norvegicus [14] = assay: Compound was tested in vivo for DOPA accumulation in corpus striatum against reserpine-pretreated rats; P=significant partial reduction only at the highest dose tested (50).; type: functional, organism-based
D(2) dopamine receptor [15] = biological target: T1, D(2) dopamine receptor; assay: Binding affinity against Dopamine receptor D2 expressed in CHO-K1 cells, using [3H]U-86170 as the radioligand.; type: cell-based
Rattus norvegicus [16] = assay: The compound was tested in vivo for DOPA accumulation in hemispheres (cortex) against reserpine-pretreated rats;I= inactive at the highest dose tested; type: functional, organism-based
Rattus norvegicus [17] = assay: compound was tested in vivo for 5-HTP accumulation in corpus striatum against reserpine-pretreated rats, activity expressed as ED50; type: functional
D(3) dopamine receptor [18] = biological target: T3, D(3) dopamine receptor; assay: Compound was tested for binding affinity against Dopamine receptor D3 expressed in CHO-K1 cells, using [3H]spiperone as the radioligand; I= inactive at the highest dose tested (12.5).; type: cell-based
D(2) dopamine receptor [19] = biological target: T1, D(2) dopamine receptor; settings: cho-k1
Rattus norvegicus [20] = assay: The Compound was tested in vivo for DOPA accumulation in hemispheres (cortex) against reserpine-pretreated rats;I= inactive at the highest dose (12.5); type: functional, organism-based
Rattus norvegicus [21] = assay: Compound was tested in vivo for DOPA accumulation in corpus striatum against reserpine-pretreated rats;P= significant partial reduction only at the highest dose tested (40).; type: functional, organism-based
Rattus norvegicus [22] = assay: The Compound was tested in vivo for DOPA accumulation in hemispheres (cortex) against reserpine-pretreated rats;I= inactive at the highest dose (40); type: functional, organism-based
Rattus norvegicus [23] = assay: The Compound was tested in vivo for DOPA accumulation in limbic system against reserpine-pretreated rats; P=significant partial reduction only at the highest dose tested (40).; type: functional, organism-based
Rattus norvegicus [24] = assay: Compound was tested in vivo for 5-HTP accumulation in hemispheres (cortex) against reserpine-pretreated rats; significant partial reduction only at the highest dose tested (40).; type: functional, organism-based
Rattus norvegicus [25] = assay: compound was tested in vivo for DOPA accumulation in corpus striatum against reserpine-pretreated rats; I= inactive at the highest dose tested (50).; type: functional, organism-based
Rattus norvegicus [26] = assay: compound was tested in vivo for 5-HTP accumulation in limbic system against reserpine-pretreated rats,; type: functional
D(3) dopamine receptor [27] = biological target: T3, D(3) dopamine receptor; assay: The compound was tested in vitro for binding affinity against cloned mammalian Dopamine receptor D3 expressed in CHO cells by, using [3H]spiperone as radioligand; type: cell-based
Rattus norvegicus [28] = assay: The compound was tested in vivo for DOPA accumulation in limbic system against reserpine-pretreated rats; I= inactive at the highest dose tested (50).; type: functional, organism-based
Rattus norvegicus [29] = assay: The compound was tested in vivo for DOPA accumulation in hemispheres (cortex) against reserpine-pretreated rats; I= inactive at the highest dose tested (50).; type: functional, organism-based
Rattus norvegicus [30] = assay: compound was tested in vivo for 5-HTP accumulation in hemispheres (cortex) against reserpine-pretreated rats; type: functional

Structure (SMILES): CCCN(CCC)C1CCc2ccc3c(c2C1)CC(=O)N3 (stereo not drawn)
- ED50 (Rattus norvegicus [1]): inactive
- Ki (D(2) dopamine receptor [2]): 11 nM
- ED50 (Rattus norvegicus [3]): 0.45 µmol/kg
- ED50 (Rattus norvegicus [4]): 0.41 µmol/kg
- ED50 (Rattus norvegicus [5]): 0.25 µmol/kg
- Ki [6]: 26 nM
- ED50 (Rattus norvegicus [7]): 0.17 µmol/kg
- Ki ([8]; read-out: Ki): 194 nM
- ED50 (Rattus norvegicus [9]): 0.86 µmol/kg
- Ki [10]: 14 nM
- Ki (D(3) dopamine receptor [11]): 23 nM

Structure (SMILES): CCCN(CCC)[C@H]1CCc2ccc3[nH]cc(C#N)c3c2C1
- ED50 (Rattus norvegicus [1]): inactive
- Ki (D(3) dopamine receptor [12]): 391 nM
- ED50 (Rattus norvegicus [13]): Weak activity
- Ki [6]: 42 nM
- Ki ([8]; read-out: Ki): 304 nM
- ED50 (Rattus norvegicus [14]): Weak activity
- Ki [10]: 0.5 nM
- Ki (D(2) dopamine receptor [15]): 419 nM

Structure (SMILES): CCCN(CCC)[C@H]1CCc2ccc3[nH]cc(C=O)c3c2C1
- ED50 (Rattus norvegicus [16]): inactive
- Ki (D(2) dopamine receptor [2]): 423 nM
- ED50 (Rattus norvegicus [17]): 0.0052 µmol/kg
- Ki [6]: 155 nM
- Ki ([8]; read-out: Ki): 939 nM
- Ki (D(3) dopamine receptor [11]): 751 nM

Structure (SMILES): CCCN(CCC)[C@H]1CCc2ccc3[nH]cc(C(=O)C(N)=O)c3c2C1
- Ki (D(3) dopamine receptor [18]): Not Active
- Ki [6]: 440 nM
- Ki ([8]; read-out: Ki): 1100 nM
- Ki (D(2) dopamine receptor [19]): Not Active
- Ki [10]: 49 nM

Structure (SMILES): CCCN(CCC)[C@@H]1CCc2cc(F)c3[nH]ccc3c2C1
- Ki (D(2) dopamine receptor [2]): 7.8 nM
- ED50 (Rattus norvegicus [3]): 0.53 µmol/kg
- ED50 (Rattus norvegicus [4]): 0.7 µmol/kg
- ED50 (Rattus norvegicus [5]): 0.63 µmol/kg
- ED50 (Rattus norvegicus [20]): inactive
- ED50 (Rattus norvegicus [7]): 0.49 µmol/kg
- Ki ([8]; read-out: Ki): 142 nM
- ED50 (Rattus norvegicus [9]): 0.51 µmol/kg
- Ki [10]: 1.5 nM

Structure (SMILES): CCCN(CCC)C1CCc2cc(F)c3[nH]cc(C(=O)CC)c3c2C1 (stereo not drawn)
- Ki (D(2) dopamine receptor [2]): 377 nM
- ED50 (Rattus norvegicus [3]): 6.34 µmol/kg
- ED50 (Rattus norvegicus [4]): 3.94 µmol/kg
- ED50 (Rattus norvegicus [21]): Weak activity
- Ki [6]: 36 nM
- ED50 (Rattus norvegicus [22]): inactive
- Ki ([8]; cho-k1): Not Active
- ED50 (Rattus norvegicus [23]): Weak activity
- Ki [10]: 7.1 nM
- ED50 (Rattus norvegicus [24]): Active
- Ki (D(3) dopamine receptor [11]): 542 nM

Structure (SMILES): CCCN(CCC)C1CCc2cc(F)c3c(ccn3C)c2C1 (stereo not drawn)
- Ki (D(2) dopamine receptor [2]): 86 nM
- Ki [6]: 217 nM
- Ki ([8]; read-out: Ki): 1650 nM
- Ki [10]: 250 nM
- Ki (D(3) dopamine receptor [11]): 52 nM

Structure (SMILES): CCCN(CCC)C1CCc2ccc3[nH]cc(C(=O)C(=O)N(CC)CC)c3c2C1 (stereo not drawn)
- Ki [10]: 7.3 nM

Structure (SMILES): CCCNC1CCc2cc(F)ccc2C1 (stereo not drawn)
- ED50 (Rattus norvegicus [25]): inactive
- ED50 (Rattus norvegicus [26]): 15.5 µmol/kg
- Ki (D(3) dopamine receptor [27]): 156 nM
- ED50 (Rattus norvegicus [17]): 9.53 µmol/kg
- ED50 (Rattus norvegicus [28]): inactive
- Ki [6]: 585 nM
- Ki ([8]; read-out: Ki): 1510 nM
- ED50 (Rattus norvegicus [29]): inactive
- ED50 (Rattus norvegicus [30]): 12.8 µmol/kg
- Ki [10]: 134 nM
- Ki (D(2) dopamine receptor [15]): 162 nM

Structure (SMILES): CCCN(CCC)[C@H]1CCc2cc(F)c3[nH]ccc3c2C1
- Ki (D(2) dopamine receptor [2]): 4.4 nM
- ED50 (Rattus norvegicus [3]): 0.74 µmol/kg
- ED50 (Rattus norvegicus [4]): 0.42 µmol/kg
- ED50 (Rattus norvegicus [5]): 0.43 µmol/kg
- ED50 (Rattus norvegicus [20]): inactive
- ED50 (Rattus norvegicus [7]): 0.8 µmol/kg
- Ki ([8]; read-out: Ki): 948 nM
- ED50 (Rattus norvegicus [9]): 0.83 µmol/kg
- Ki [10]: 3.7 nM

Structure (SMILES): CCCN(CCC)C1CCc2ccc3[nH]cc(C)c3c2C1 (stereo not drawn)
- Ki (D(3) dopamine receptor [12]): 67 nM
- Ki [6]: 43 nM

Structure (SMILES): CCCc1c[nH]c2c(F)cc3c(c12)CC(N(CCC)CCC)CC3 (stereo not drawn)
- Ki (D(2) dopamine receptor [2]): 5.9 nM
- Ki [6]: 8.4 nM
- Ki ([8]; read-out: Ki): 177 nM
- Ki [10]: 11 nM
- Ki (D(3) dopamine receptor [11]): 111 nM
